Measurements taken from ChEMBL document CHEMBL1150515, “Synthesis and structure-activity relationships of novel THF 1-methylcarbapenems II” (1997).

System: Acinetobacter calcoaceticus
Experiment: Antimicrobial activity against Acinetobacter calcoaceticus (GC 756)
Assay type: functional
Conditions: not given

Compared with `C[C@@H](O)[C@H]1C(=O)N2C(C(=O)[O-])=C(S[C@@H]3CCO[C@@H]3C/N=C\N)[C@H](C)[C@H]12.[Na+]`, `C[C@@H](O)[C@H]1C(=O)N2C(C(=O)[O-])=C(S[C@@H]3CCO[C@@H]3CN(C)C)[C@H](C)[C@H]12.[Na+]` is 2-fold lower in MIC: 8 µg/mL for the first, 4 µg/mL for the second.

System: not listed separately
Experiment: Antimicrobial activity against Citrobacter freundii (GC 2211)
Assay type: functional
Conditions: not given

Going from `C[C@@H](O)[C@H]1C(=O)N2C(C(=O)[O-])=C(S[C@@H]3CCO[C@@H]3C/N=C\N)[C@H](C)[C@H]12.[Na+]` to `C[C@@H](O)[C@H]1C(=O)N2C(C(=O)[O-])=C(S[C@@H]3CCO[C@@H]3CN(C)C)[C@H](C)[C@H]12.[Na+]`, the MIC falls from 0.5 µg/mL to 0.25 µg/mL (2-fold).

Target: T1, Dipeptidase 1 (Sus scrofa) (UniProt P22412)
T1 sequence (whole entry): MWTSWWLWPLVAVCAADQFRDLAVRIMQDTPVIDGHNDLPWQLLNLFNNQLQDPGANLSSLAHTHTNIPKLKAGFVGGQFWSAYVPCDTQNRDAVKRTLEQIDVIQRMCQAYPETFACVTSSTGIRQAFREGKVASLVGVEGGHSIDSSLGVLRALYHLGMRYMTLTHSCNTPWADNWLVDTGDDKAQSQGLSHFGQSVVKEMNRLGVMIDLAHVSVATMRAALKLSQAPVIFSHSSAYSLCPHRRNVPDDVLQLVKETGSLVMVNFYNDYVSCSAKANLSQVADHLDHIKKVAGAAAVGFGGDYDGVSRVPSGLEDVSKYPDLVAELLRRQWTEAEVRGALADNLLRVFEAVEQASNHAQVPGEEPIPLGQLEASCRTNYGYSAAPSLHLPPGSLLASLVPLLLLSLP
Experiment: Relative hydrolysis to that of imipenem was determined by hog renal dehydropeptidase
Conditions: not given

Compared with `C[C@@H](O)[C@H]1C(=O)N2C(C(=O)[O-])=C(S[C@@H]3CCO[C@@H]3C/N=C\N)[C@H](C)[C@H]12.[Na+]`, `C[C@@H](O)[C@H]1C(=O)N2C(C(=O)[O-])=C(S[C@@H]3CCO[C@@H]3CN(C)C)[C@H](C)[C@H]12.[Na+]` is lower in Relative hydrolysis: 18 for the first, 7.5 for the second.

System: not listed separately
Experiment: Antimicrobial activity against Enterococcus faecium (GC 1182)
Assay type: functional
Conditions: not given

Going from `C[C@@H](O)[C@H]1C(=O)N2C(C(=O)[O-])=C(S[C@@H]3CCO[C@@H]3C/N=C\N)[C@H](C)[C@H]12.[Na+]` to `C[C@@H](O)[C@H]1C(=O)N2C(C(=O)[O-])=C(S[C@@H]3CCO[C@@H]3CN(C)C)[C@H](C)[C@H]12.[Na+]`, the MIC falls from over 128 µg/mL to 64 µg/mL.

System: not listed separately
Experiment: Antimicrobial activity against Enterobacter cloacae (GC 2209)
Assay type: functional
Conditions: not given

`C[C@@H](O)[C@H]1C(=O)N2C(C(=O)[O-])=C(S[C@@H]3CCO[C@@H]3C/N=C\N)[C@H](C)[C@H]12.[Na+]` and `C[C@@H](O)[C@H]1C(=O)N2C(C(=O)[O-])=C(S[C@@H]3CCO[C@@H]3CN(C)C)[C@H](C)[C@H]12.[Na+]` cannot be ordered by MIC: at most 0.06 µg/mL for the first, at most 0.12 µg/mL for the second.

System: not listed separately
Experiment: Antimicrobial activity against Enterococcus faecalis (GC 842)
Assay type: functional
Conditions: not given

First: C[C@@H](O)[C@H]1C(=O)N2C(C(=O)[O-])=C(S[C@@H]3CCO[C@@H]3C/N=C\N)[C@H](C)[C@H]12.[Na+]
Second: C[C@@H](O)[C@H]1C(=O)N2C(C(=O)[O-])=C(S[C@@H]3CCO[C@@H]3CN(C)C)[C@H](C)[C@H]12.[Na+]
The MIC of the first is 2-fold higher: 2 µg/mL for the first, 1 µg/mL for the second.

System: Escherichia coli
Experiment: Antimicrobial activity against Escherichia coli (ATCC 25922)
Assay type: functional
Conditions: not given

`C[C@@H](O)[C@H]1C(=O)N2C(C(=O)[O-])=C(S[C@@H]3CCO[C@@H]3C/N=C\N)[C@H](C)[C@H]12.[Na+]` and `C[C@@H](O)[C@H]1C(=O)N2C(C(=O)[O-])=C(S[C@@H]3CCO[C@@H]3CN(C)C)[C@H](C)[C@H]12.[Na+]` cannot be ordered by MIC: at most 0.06 µg/mL for the first, 0.03 µg/mL for the second.

System: Escherichia coli
Experiment: Antimicrobial activity against Escherichia coli (GC 1792)
Assay type: functional
Conditions: not given

`C[C@@H](O)[C@H]1C(=O)N2C(C(=O)[O-])=C(S[C@@H]3CCO[C@@H]3C/N=C\N)[C@H](C)[C@H]12.[Na+]` and `C[C@@H](O)[C@H]1C(=O)N2C(C(=O)[O-])=C(S[C@@H]3CCO[C@@H]3CN(C)C)[C@H](C)[C@H]12.[Na+]` cannot be ordered by MIC: at most 0.06 µg/mL for the first, 0.06 µg/mL for the second.

System: Escherichia coli
Experiment: Antimicrobial activity against Escherichia coli (GC 2205)
Assay type: functional
Conditions: not given

First: C[C@@H](O)[C@H]1C(=O)N2C(C(=O)[O-])=C(S[C@@H]3CCO[C@@H]3C/N=C\N)[C@H](C)[C@H]12.[Na+]
Second: C[C@@H](O)[C@H]1C(=O)N2C(C(=O)[O-])=C(S[C@@H]3CCO[C@@H]3CN(C)C)[C@H](C)[C@H]12.[Na+]
The MIC of the first is 2-fold higher: 0.12 µg/mL for the first, 0.06 µg/mL for the second.

System: not listed separately
Experiment: Antimicrobial activity against Morganella morganii (GC 2213)
Assay type: functional
Conditions: not given

Going from `C[C@@H](O)[C@H]1C(=O)N2C(C(=O)[O-])=C(S[C@@H]3CCO[C@@H]3C/N=C\N)[C@H](C)[C@H]12.[Na+]` to `C[C@@H](O)[C@H]1C(=O)N2C(C(=O)[O-])=C(S[C@@H]3CCO[C@@H]3CN(C)C)[C@H](C)[C@H]12.[Na+]`, the MIC falls from 1 µg/mL to 0.5 µg/mL (2-fold).

System: Pseudomonas aeruginosa
Experiment: Antimicrobial activity against Pseudomonas aeruginosa (ATCC 27853)
Assay type: functional
Conditions: not given

`C[C@@H](O)[C@H]1C(=O)N2C(C(=O)[O-])=C(S[C@@H]3CCO[C@@H]3C/N=C\N)[C@H](C)[C@H]12.[Na+]` and `C[C@@H](O)[C@H]1C(=O)N2C(C(=O)[O-])=C(S[C@@H]3CCO[C@@H]3CN(C)C)[C@H](C)[C@H]12.[Na+]` are the same in MIC: 16 µg/mL for the first, 16 µg/mL for the second.

System: Pseudomonas aeruginosa
Experiment: Antimicrobial activity against Pseudomonas aeruginosa (GC 1544 OprD)
Assay type: functional
Conditions: not given

`C[C@@H](O)[C@H]1C(=O)N2C(C(=O)[O-])=C(S[C@@H]3CCO[C@@H]3C/N=C\N)[C@H](C)[C@H]12.[Na+]` and `C[C@@H](O)[C@H]1C(=O)N2C(C(=O)[O-])=C(S[C@@H]3CCO[C@@H]3CN(C)C)[C@H](C)[C@H]12.[Na+]` are the same in MIC: 32 µg/mL for the first, 32 µg/mL for the second.

System: Staphylococcus aureus
Experiment: Antimicrobial activity against Staphylococcus aureus (ATCC 29213)
Assay type: functional
Conditions: not given

`C[C@@H](O)[C@H]1C(=O)N2C(C(=O)[O-])=C(S[C@@H]3CCO[C@@H]3C/N=C\N)[C@H](C)[C@H]12.[Na+]` and `C[C@@H](O)[C@H]1C(=O)N2C(C(=O)[O-])=C(S[C@@H]3CCO[C@@H]3CN(C)C)[C@H](C)[C@H]12.[Na+]` cannot be ordered by MIC: at most 0.06 µg/mL for the first, 0.06 µg/mL for the second.

System: Staphylococcus aureus
Experiment: Antimicrobial activity against methicillin - resistant Staphylococcus aureus (GC 2220)
Assay type: functional
Conditions: not given

`C[C@@H](O)[C@H]1C(=O)N2C(C(=O)[O-])=C(S[C@@H]3CCO[C@@H]3C/N=C\N)[C@H](C)[C@H]12.[Na+]` and `C[C@@H](O)[C@H]1C(=O)N2C(C(=O)[O-])=C(S[C@@H]3CCO[C@@H]3CN(C)C)[C@H](C)[C@H]12.[Na+]` are the same in MIC: 4 µg/mL for the first, 4 µg/mL for the second.

System: not listed separately
Experiment: Antimicrobial activity against Xanthomonas maltophilia (GC 562)
Assay type: functional
Conditions: Stenotrophomonas maltophilia

`C[C@@H](O)[C@H]1C(=O)N2C(C(=O)[O-])=C(S[C@@H]3CCO[C@@H]3C/N=C\N)[C@H](C)[C@H]12.[Na+]` and `C[C@@H](O)[C@H]1C(=O)N2C(C(=O)[O-])=C(S[C@@H]3CCO[C@@H]3CN(C)C)[C@H](C)[C@H]12.[Na+]` cannot be ordered by MIC: over 128 µg/mL for the first, over 128 µg/mL for the second.
